Assay results reported in patent publication US4806532A, “Inhibition of epithelial phosphate transport” (Mayo Foundation for Medical Education and Research, priority 1985, dated 1989).
Entries after “also recorded” stand apart in the source; their conditions may differ. Each block holds one compound with its values, some of them ahead of it.

Assays:
Na-Pi cotransporter = molecular target: T1, Na-Pi cotransporter (Rattus norvegicus, UniProt Q06496); assay: Na+-gradient-dependent 32Pi uptake by renal cortical BBMV (rapid filtration); assay type: biochemical
T1 construct: from tissue; host or cells: rat renal cortex, brush border membrane vesicles
T1 sequence (Q06496 1-637): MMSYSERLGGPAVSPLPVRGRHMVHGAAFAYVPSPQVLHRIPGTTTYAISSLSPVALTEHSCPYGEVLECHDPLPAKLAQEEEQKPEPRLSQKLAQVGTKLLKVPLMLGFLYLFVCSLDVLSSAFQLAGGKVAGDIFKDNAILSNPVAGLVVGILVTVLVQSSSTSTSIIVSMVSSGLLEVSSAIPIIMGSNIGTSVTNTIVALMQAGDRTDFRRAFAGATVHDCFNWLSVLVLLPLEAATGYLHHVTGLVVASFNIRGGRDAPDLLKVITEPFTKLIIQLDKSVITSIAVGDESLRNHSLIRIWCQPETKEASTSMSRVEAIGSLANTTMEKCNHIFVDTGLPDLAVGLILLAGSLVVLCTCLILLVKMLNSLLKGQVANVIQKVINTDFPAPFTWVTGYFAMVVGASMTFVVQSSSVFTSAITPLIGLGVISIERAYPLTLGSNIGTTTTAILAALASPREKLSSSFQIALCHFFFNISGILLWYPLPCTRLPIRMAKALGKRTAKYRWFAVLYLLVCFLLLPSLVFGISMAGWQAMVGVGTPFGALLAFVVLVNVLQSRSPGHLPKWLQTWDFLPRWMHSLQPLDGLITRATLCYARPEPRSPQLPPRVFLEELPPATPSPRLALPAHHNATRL
Description: (§1) The brush border membrane vesicles (BBMV) were prepared from renal cortical tissue of adult male Sprague-Dawley rats of an average body weight of about 220 grams. Rats were fed ad libitum standard rat chow containing 0.7% Pi and had free access to distilled water. Rats were sacrificed under anesthesia and dissected renal cortical tissue was used for preparation of BBMV fraction by the divalent cation-precipitation procedure, employed and described in detail in J. Clin. Invest., 67, 1347 (1981) and J. Biol. Chem., 258, 5695 (1983), with the following modifications: (a) MgCl2 instead of CaCl2 was added to crude homogenate (final concentration 10 mM MgCl2) to precipitate membranes other than BBMV; (b) in the final step, BBMV were washed and equilibrated in a medium of pH=7.5, instead of pH=8.5. The enrichment and specific activities of typical BBM enzymes alkaline phosphatase (APases), γ-glutyamyl transferase (γ-GTT), leucineaminopeptidase (LAP) and maltase with use of these modifications were similar as in BBMV fractions prepared in our previous studies. As a final step in the preparative procedure, the BBMV fraction was washed and resuspended in a medium containing 300 mM mannitol and 5 mM Tris-HEPES adjusted to pH=t.5, referred to as "MTH-medium," unless specified otherwise. The analogous BBMV fractions, using the same procedure, were prepared from renal cortices of mongrel dogs, albino mice and New Zealand albino rabbits.
The BBMV uptake of ^32 Pi, D-[^3 H]-glucose, L-[^3 H]-proline and ^22 Na^+ was measured by means of a rapid filtration technique, as described in J. Clin. Invest., 67, 1347 (1981) and Am. J. Physiol., 246, F133-F139 (1984). Also, unless specified otherwise, the medium for the solute uptake assay consisted of following compounds (in final concentrations): 100 mM mannitol, 100 mM NaCl (or 100 mM KC1) and 5 mM Tris-HEPES (pH=7.5) and eitehr 0.1 mM K2 H^32 PO4, or 0.05 mM D-[^3 H]-glucose, or 0.025 mM L-[^3 H]-proline. IN the ^22 Na^+ uptake studies, the assay medium contained 100 mM ^22 NaCl (^22 NaCl about […] per tube), 100 mM mannitol and 5 mM Tris-HEPES (pH 7.5).
In most experiments, the Na^+ -gradient-dependent ^32 Pi uptake in the concentrative "uphill" phase was measured at 20 seconds period. Since Na^+ -independent Pi uptake in this time period was quantitatively minor component (<5%) of the Na^+ -gradient-dependent Pi uptake, it was not routinely subtracted.

[1] = Hydrolysis of phosphono-compounds (release of Pi) in the BBMV assay; conditions: 1 mM; hydrolysis to release more than 5% Pi
Excerpt: Compounds studied in the present experiments which inhibited BBM transport of Pi without hydrolysis to release more than 5% Pi are listed in Table 1.

[2] = tested on: L-[^3 H]-proline uptake by BBMV; assay: Na+-gradient-dependent uptake of L-[3H]-proline by renal BBMV; assay type: biochemical, rat; conditions: initial uptake 15 sec, FIG. 2
Description: as §1, with “As a final step in the preparative procedure, the BBMV fraction was washed and resuspended in a medium containing 300 mM mannitol and 5 mM Tris-HEPES adjusted to pH=t.5, referred to as "MTH-medium," unless specified otherwise. The analogous BBMV fractions, using the same procedure, were prepared from renal cortices of mongrel dogs, albino mice and New Zealand albino rabbits.” left out
(§2) The BBMV uptake of ^32 Pi, D-[^3 H]-glucose, L-[^3 H]-proline and ^22 Na^+ was measured by means of a rapid filtration technique, as described in J. Clin. Invest., 67, 1347 (1981) and Am. […]

[3] = tested on: D-[^3 H]-glucose uptake by BBMV; assay: Na+-gradient-dependent uptake of D-[3H]-glucose by renal BBMV; assay type: biochemical, rat; conditions: initial uptake 15 sec, FIG. 2
Description: as §1, with “As a final step in the preparative procedure, the BBMV fraction was washed and resuspended in a medium containing 300 mM mannitol and 5 mM Tris-HEPES adjusted to pH=t.5, referred to as "MTH-medium," unless specified otherwise. The analogous BBMV fractions, using the same procedure, were prepared from renal cortices of mongrel dogs, albino mice and New Zealand albino rabbits.” left out
as §2

[4] = tested on: diffusional uptake of ^22 Na^+ by BBMV; assay: Diffusional uptake of 22Na+ by renal BBMV; assay type: biochemical, rat; conditions: 1 mM
Description: as §1, with “As a final step in the preparative procedure, the BBMV fraction was washed and resuspended in a medium containing 300 mM mannitol and 5 mM Tris-HEPES adjusted to pH=t.5, referred to as "MTH-medium," unless specified otherwise. The analogous BBMV fractions, using the same procedure, were prepared from renal cortices of mongrel dogs, albino mice and New Zealand albino rabbits.” left out
as §2

SMILES: NCCP(=O)(O)O [2-aminoethylphosphonic acid, reference compound]
effect on Na+-gradient uptake of Pi by renal BBMV (in words) (Na-Pi cotransporter): lacked the inhibitory effect

Note: hydrolysis [1]: no | inhibition at 1000 µM (Na-Pi cotransporter; 1 mM, initial uptake at 20 sec, rat kidney cortex BBMV, read-out: Δ% (inhibition as percent decrease from control) of Na+-gradient-dependent 32Pi uptake): -27%
SMILES: CC(O)(P(=O)(O)O)P(=O)(O)O [EHDP, disodium ethane-1-hydroxy-1,1-diphosphonate, reference compound]

inhibition at 5000 µM (Na-Pi cotransporter; 5 mM, initial uptake at 20 sec, rat kidney cortex BBMV, read-out: Δ% (inhibition as percent decrease from control) of Na+-gradient-dependent 32Pi uptake): -21%
SMILES: O=P(O)(O)CP(=O)(O)O [MDP, Methylenediphosphonic acid, reference compound]

SMILES: O=C(O)P(=O)(O)O [PFA, phosphonoformic acid]
effect on Na+-gradient-dependent uptake of L-[3H]-proline [2]: no inhibitory effect | effect on Na+-gradient-dependent uptake of D-[3H]-glucose [3]: no inhibitory effect | 22Na+ uptake 120 min ([4]; equilibrium, control 166 ± 25): 192 ± 30 nmoles/mg protein | 22Na+ uptake 20 sec ([4]; mean ± SEM of 3 experiments, control 42 ± 4): 45 ± 3 nmoles/mg protein

SMILES: O=C(O)CCP(=O)(O)O [PPA, phosphonopropionic acid, reference compound]
effect on Na+-gradient uptake of Pi by renal BBMV (in words) (Na-Pi cotransporter): inactive

SMILES: O=P(O)(O)CO [hydroxymethylphosphonic acid, reference compound]
effect on Na+-gradient uptake of Pi by renal BBMV (in words) (Na-Pi cotransporter): without effect; also recorded: lacked the inhibitory effect

SMILES: O=P(O)(O)c1ccccc1 [phenylphosphonic acid, reference compound]
effect on Na+-gradient uptake of Pi by renal BBMV (in words) (Na-Pi cotransporter): without effect; also recorded: lacked the inhibitory effect

SMILES: COC(=O)CP(=O)(OC)OC [trimethylester of PAA, reference compound]
effect on Na+-gradient uptake of Pi by renal BBMV (in words) (Na-Pi cotransporter): without inhibitory effort

SMILES: COC(=O)P(=O)(OC)OC [trimethylester of TPFA, reference compound]
effect on Na+-gradient uptake of Pi by renal BBMV (in words) (Na-Pi cotransporter): without inhibitory effort
